Reference: patent US8143421B2, “Broadspectrum substituted benzimidazole sulfonamide HIV protease inhibitors” (priority 2002, dated 2012)

Assays:
HIV-1 strain LAI = test: Cellular anti-HIV assay, MT4 cells, MTT readout, wild type HIV-1 strain LAI; type: cell-based; settings: for WT (pIC50 against wild type HIV-LAI strain): Table 4
Experimental: The compounds of the present invention were examined for anti-viral activity in a cellular assay. […] The cellular assay was performed according to the following procedure.

mutant A = type: cell-based; settings: FR=IC50(mutant strain)/IC50(HIV-1 strain LAI)
Experimental: (§1) HIV- or mock-infected MT4 cells were incubated for five days in the presence of various concentrations of the inhibitor. […] Cell viability is measured by measuring the concentration of MTT, a yellow, water soluble tetrazolium dye that is converted to a purple, water insoluble formazan in the mitochondria of living cells only. Upon solubilization of the resulting formazan crystals with isopropanol, the absorbance of the solution is monitored at 540 nm. The values correlate directly to the number of living cells remaining in the culture at the completion of the five day incubation. The inhibitory activity of the compound was monitored on the virus-infected cells and was expressed as IC50 and IC90. These values represent the amount of the compound required to protect 50% and 90%, respectively, of the cells from the cytopathogenic effect of the virus. […] The selectivity index (SI) (ratio CC50/IC50) is an indication of the selectivity of the anti-HIV activity of the inhibitor. Wherever results are reported as e.g. pIC50 or pCC50 values, the result is expressed as the negative logarithm of the result expressed as IC50 or CC50 respectively.
(§2) Because of the increasing emergence of drug resistant HIV strains, the present compounds were tested for their potency against clinically isolated HIV strains harboring several mutations. […] The viral strains R13025, R13027, R13028, R13029, R13034, R13080, T13127 and R13363 contained mutations as indicated below in Table 3.
(§3) As a measure of the broad spectrum activity of the present compounds, the fold resistance (FR), defined as FR=IC50(mutant strain)/IC50(HIV-1 strain LAI), was determined.

mutant E = type: cell-based; settings: FR=IC50(mutant strain)/IC50(HIV-1 strain LAI)
Experimental: as §1, §2, §3

mutant H = test: Antiviral spectrum, fold resistance towards mutant H; type: cell-based; settings: FR=IC50(mutant strain)/IC50(HIV-1 strain LAI)
Experimental: Because of the increasing emergence of drug resistant HIV strains, the present compounds were tested for their potency against clinically isolated HIV strains harboring several mutations. These mutations are associated with resistance to protease inhibitors and result in viruses that show various degrees of phenotypic cross-resistance to the currently commercially available drugs such as for instance saquinavir, ritonavir, nelfinavir, indinavir and amprenavir. The viral strains R13025, R13027, R13028, R13029, R13034, R13080, T13127 and R13363 contained mutations as indicated below in Table 3.

mock-infected MT4 cells = test: in vitro
Experimental: as §1, §3

[1] = Table 1, MT4 cells, five days, HIV-1 strain LAI
[2] = pCC50 value as determined with mock transfected cells
[3] = Table 2, MT4 cells, five days, HIV-1 strain LAI

IC50 (HIV-1 strain LAI; Human immunodeficiency virus 1, 120 h, Table 1, MT4 cells, five days, HIV-1 strain LAI, read-out: pIC50 (LAI) (converted))	Structure (SMILES)	pIC50 (LAI) (HIV-1 strain LAI; [1])	WT (pIC50 against wild type HIV-LAI strain) (HIV-1 strain LAI)	FR value towards mutant A (mutant A)	FR towards mutant E (mutant E)	FR towards mutant H (mutant H)	Tox (pCC50) (mock-infected MT4 cells)	Tox (pCC50) (mock-infected MT4 cells; [2])	pIC50 (LAI) (HIV-1 strain LAI; [3])
	COC(=O)Nc1nc2ccc(S(=O)(=O)N(CC(C)C)CC(O)C(Cc3ccccc3)NC(=O)OC3COC4OCCC34)cc2[nH]1 (stereo not drawn) [Compound 10]	8.0							
	CC(C)CN(C[C@@H](O)[C@H](Cc1ccccc1)NC(=O)O[C@H]1CCOC1)S(=O)(=O)c1ccc2ncn(CC(C)C)c2c1 [Compound 14]	7.7							
39.8 nM	CC(C)CN(C[C@@H](O)[C@H](Cc1ccccc1)NC(=O)O[C@H]1CO[C@H]2OCC[C@H]21)S(=O)(=O)c1ccc2ncn(CCN3CCCC3)c2c1 [Compound 20, [(1S,2R)-2-hydroxy-1-(phenyl-methyl)-3-[[[1-[2-(pyrrolidin-1-yl)ethyl]benzimidazol-6-yl]sulfonyl](2-methylpropyl)-amino]propyl]carbamic acid, [(3R,3aS,6aR)-hexahydrofuro[2,3-b]furan-3-yl]ester]								
	COC(=O)Nc1nc2ccc(S(=O)(=O)N(CC(C)C)C[C@@H](O)[C@H](Cc3ccccc3)NC(=O)c3ccc(O)cc3C)cc2[nH]1 [Compound 25]	7.1	7.1	1.2	1.3	4.6	4.3		
	COC(=O)Nc1nc2ccc(S(=O)(=O)N(CC(C)C)C[C@@H](O)[C@H](Cc3ccccc3)NC(=O)COc3c(C)cc(CN)cc3C)cc2[nH]1 [Compound 26]	7.0	7.0	6.3	6.8	47		4.86	
	CC(=O)Nc1nc2ccc(S(=O)(=O)N(CC(C)C)C[C@@H](O)[C@H](Cc3ccccc3)NC(=O)O[C@H]3CCOC3)cc2[nH]1 [Compound 27]	7.3	7.3	2.7	1.1	2.3	<4		
	CC(C)CN(CC(O)C(Cc1ccccc1)NC(=O)OC1COC2OCCC12)S(=O)(=O)c1ccc2ncn(Cc3ccncc3)c2c1 (stereo not drawn) [Compound 28]	7.5	7.5	1.5	1.3	2.6			
	Cc1cccc(C)c1OCC(=O)N[C@@H](Cc1ccccc1)[C@H](O)CN(CC(C)C)S(=O)(=O)c1ccc2nc[nH]c2c1 [Compound 29]	7.1	7.1	14	13	78	4.21		
	CC(C)CN(C[C@@H](O)[C@H](Cc1ccccc1)NC(=O)OCc1cncs1)S(=O)(=O)c1ccc2ncn(Cc3ccccc3)c2c1 [Compound 30]	7.1	7.1	18	13	65			
	Cc1cccc(C)c1OCC(=O)N[C@@H](Cc1ccccc1)[C@H](O)CN(CC(C)C)S(=O)(=O)c1ccc2ncn(C)c2c1 [Compound 31]	7.2	7.2	13	9.5	209	4.24		
	CC(C)CN(C[C@@H](O)[C@H](Cc1ccccc1)NC(=O)OCc1cncs1)S(=O)(=O)c1ccc2ncn(CC(C)C)c2c1 [Compound 32]	7.4	7.4	18	13	41	4.2		
	CC(C)CN(C[C@@H](O)[C@H](Cc1ccccc1)NC(=O)OCc1cncs1)S(=O)(=O)c1ccc2ncn(C)c2c1 [Compound 33]	7.0	7.7	60	19	234	<4		
	CC(C)CN(C[C@@H](O)[C@H](Cc1ccccc1)NC(=O)OCc1cncs1)S(=O)(=O)c1ccc2ncn(CCc3ccccc3)c2c1 [Compound 34]	7.0	7.0	32	17	46		<4	
	CC(C)CN(C[C@@H](O)[C@H](Cc1ccccc1)NC(=O)OCc1cccnc1)S(=O)(=O)c1ccc2nc[nH]c2c1 [Compound 35]	7.0	7.0	91	17	148		<4	
	CC(C)CN(C[C@@H](O)[C@H](Cc1ccccc1)NC(=O)OC(C)(C)C)S(=O)(=O)c1ccc2nc(N)n(Cc3ccccc3)c2c1 [Compound 39]	6.9	6.9	32	3.5				
	CC(C)CN(C[C@@H](O)[C@H](Cc1ccccc1)NC(=O)O[C@H]1CO[C@H]2OCC[C@H]21)S(=O)(=O)c1ccc2nc(NCCN3CCCC3)n(CCc3ccccc3)c2c1 [Compound 40, [(1S,2R)-2-hydroxy-3-[[[[1-(phenethyl)-2-[2-(pyrrolidin-1-yl)ethylamino]]benzimidazol-6-yl]sulfonyl](2-methylpropyl)amino]-1-(phenylmethyl)propyl]carbamic acid, [(3R,3aS,6aR)-hexahydrofuro[2,3-b]furan-3-yl]ester]	6.4	6.4	10	4.0	7.9			
	CC(C)CN(C[C@@H](O)[C@H](Cc1ccccc1)NC(=O)O[C@H]1CCOC1)S(=O)(=O)c1ccc2nc[nH]c2c1 [Compound 42]	7.1	7.1		8.7	52	<4		
	Cc1cccc(C)c1OCC(=O)N[C@@H](Cc1ccccc1)[C@H](O)CN(CC(C)C)S(=O)(=O)c1ccc2ncn(CC(C)C)c2c1 [Compound 45]	6.3	6.3	9.3	7.4		<4		
	Cc1c(N)cccc1C(=O)N[C@@H](Cc1ccccc1)[C@H](O)CN(CC(C)C)S(=O)(=O)c1ccc2nc[nH]c2c1 [Compound 46]	6.4	6.4					<4	
	CC(C)CN(CC(O)C(Cc1ccccc1)NC(=O)OC1COC2OCCC12)S(=O)(=O)c1ccc2ncn(Cc3cncn3C)c2c1 (stereo not drawn) [Compound 51]	6.2	6.2	2.8	0.89	2.1			
	CC(C)CN(C[C@@H](O)[C@H](Cc1ccccc1)NC(=O)O[C@H]1CCOC1)S(=O)(=O)c1ccc2nc(N)[nH]c2c1 [Compound 53]	6.0	6.0				4.05		
	CC(C)CN(CC(O)C(Cc1ccccc1)NC(=O)OC1COC2OCCC12)S(=O)(=O)c1ccc2c(c1)ncn2CCN(C)C (stereo not drawn) [Compound 60]								6.5
	Cc1cc(N)cc(C)c1OCC(=O)N[C@@H](Cc1ccccc1)[C@H](O)CN(CC(C)C)S(=O)(=O)c1ccc2c(c1)ncn2CCN(C)C [Compound 62]								5.7
